Laboratory results taken from PMC7178511, “Antimicrobial Activity and DNA/BSA Binding Affinity of Polynuclear Silver(I) Complexes with 1,2-Bis(4-pyridyl)ethane/ethene as Bridging Ligands” (Bioinorganic Chemistry and Applications, 2020).
Marks after values point to notes of the source that are not given here.

Legend:
[1] = tested on: human lung fibroblast cell line MRC-5; experiment: MTT assay on a human fibroblast cell line; type: cell-based; details: MRC-5, MTT, 48 h
Protocol: Antiproliferative activity was tested by 3-(4,5-dimethylthiazol-2-yl)-2,5-diphenyltetrazolium bromide (MTT) assay on a human lung fibroblast cell line (MRC-5; ATCC collection). Pregrown (24 h) cell monolayers were incubated in the media containing the tested compounds at concentrations ranging from 5 to 500 μg/mL and the cell viability was measured after 48 h. RPMI 1640 medium supplemented with 100 μg/mL streptomycin, 100 U/mL penicillin, and 10% (v/v) FBS (all from Sigma, Munich, Germany) was used for the cultivation of MRC-5 cell line. Cells were maintained as a monolayer (1^·10^4 cells per well) in RPMI 1640 and grown in a humidified atmosphere of 95% air and 5% CO2 at 37°C. The extent of MTT reduction was measured spectrophotometrically at 540 nm using Tecan Infinite 200 Pro multiplate reader (Tecan Group Ltd, Männedorf, Switzerland), and the cell survival was expressed as a percentage of the control (untreated cells). Cytotoxicity was expressed as the concentration of the compound inhibiting cell growth by 50% (IC50).

[2] = tested on: C. parapsilosis ATCC 22019; experiment: Broth microdilution MIC, C. parapsilosis; type: cell-based, Candida parapsilosis; details: C. parapsilosis ATCC 22019; RPMI 1640 with 2% glucose
Protocol: (§1) Stock solutions of bpa, bpe, and silver(I) complexes 1–3 were prepared fresh in DMSO (50 mg/mL) and kept at 4°C prior to use. Susceptibility testing of Candida spp. (C. albicans ATCC 10231, C. krusei ATCC 6258, C. parapsilosis ATCC 22019, and C. glabrata ATCC 2001) was performed according to CLSI broth microdilution guidelines (Clinical and Laboratory Standards Institute, Reference Method for Broth Dilution Antifungal Susceptibility Testing of Yeasts—Third Edition: Approved Standard M27-A3; Clinical and Laboratory Standards Institute, Reference Method for Broth Dilution Antifungal Susceptibility Testing of Yeasts: Fourth Informational Supplement M27-S4), in RPMI 1640 medium (Roswell Park Memorial Institute medium) containing 2% glucose (w/v). The highest tested concentration was 500 μg/mL, and the inocula were 1^·\10^5 colony forming units (cfu)/mL.

[3] = biological target: T1, bovine serum albumin (BSA) (Bos taurus, UniProt P02769); experiment: BSA tryptophan fluorescence quenching; type: binding; details: BSA 13.1 μM, Tris buffer pH 7.4
T1 construct: purchased Sigma-Aldrich
Protocol: The protein binding study was performed by tryptophan fluorescence quenching experiments using BSA (13.1 μM) in Tris buffer solution (pH 7.4). The quenching of the emission intensity of tryptophan residues of BSA at 352 nm was monitored using the increasing concentration of the complexes 1–3 (up to 464.9 μM). Fluorescence spectra were recorded in the range 280–500 nm with an excitation wavelength of 275 nm. The corresponding binding constants of the complexes (KA) and apparent binding sites (n) were calculated as it was previously explained.

[4] = tested on: Salmonella pullorum ATCC 13036; experiment: Broth microdilution MIC, S. pullorum; type: cell-based; details: S. pullorum ATCC 13036; Luria-Bertani broth, 24 h, 37°C
Protocol: (§2) Minimal inhibitory concentration (MIC) values against Pseudomonas aeruginosa PA01, Staphylococcus aureus ATCC 43300, Salmonella enteritidis ATCC 13075, Salmonella pullorum ATCC 13036, Escherichia coli NCTC 9001, Listeria monocytogenes NCTC 11994, and Enterococcus faecalis ATCC 29212 were determined in Luria-Bertani broth (10.0 g/L tryptone, 10.0 g/L NaCl, 5.0 g/L yeast extract, pH 7.2) in accordance with the standard broth microdilution assay for bacteria that grow aerobically, as recommended by the CLSI (Clinical and Laboratory Standards Institute, Methods for Dilution Antimicrobial Susceptibility Tests for Bacteria That Grow Aerobically; Approved Standard—Tenth Edition M07-A10. CLSI). The highest tested concentration was 500 μg/mL, and the inocula were 1^·10^6 cfu/mL.

[5] = tested on: Salmonella enteritidis ATCC 13075; experiment: Broth microdilution MIC, S. enteritidis; type: cell-based; details: S. enteritidis ATCC 13075; Luria-Bertani broth, 24 h, 37°C
Protocol: as §2

[6] = tested on: Escherichia coli NCTC 9001; experiment: Broth microdilution MIC, E. coli; type: cell-based; details: E. coli NCTC 9001; Luria-Bertani broth, 24 h, 37°C
Protocol: as §2

C. albicans ATCC 10231 = experiment: Broth microdilution MIC, C. albicans; type: cell-based, Candida albicans; details: C. albicans ATCC 10231; RPMI 1640 with 2% glucose
Protocol: as §1

[7] = tested on: C. albicans expressing red fluorescent protein; experiment: C. albicans filamentation study; type: cell-based, Candida albicans; details: MIC80 of complex, 6 h, 37°C, RPMI 1640 with 10% FBS
Protocol: The suspension of C. albicans expressing red fluorescent protein was prepared in RPMI 1640 medium with 10% (v/v) fetal bovine serum (FBS) to induce hyphae formation. The suspension was then treated with MIC80 concentrations of 1–3 at 37°C shaking. Cells treated with DMSO served as the control. After 6 h of incubation, the results were observed by a fluorescence microscope (Olympus BX51, Applied Imaging Corp., San Jose, CA, United States) under 20× magnification.

[8] = tested on: Pseudomonas aeruginosa PAO1; experiment: Broth microdilution MIC, P. aeruginosa; type: cell-based; details: P. aeruginosa PAO1; Luria-Bertani broth, 24 h, 37°C
Protocol: as §2

C. krusei ATCC 6258 = experiment: Broth microdilution MIC, C. krusei; type: cell-based, Candida krusei; details: C. krusei ATCC 6258; RPMI 1640 with 2% glucose
Protocol: as §1

[9] = tested on: Listeria monocytogenes NCTC 11994; experiment: Broth microdilution MIC, L. monocytogenes; type: cell-based; details: L. monocytogenes NCTC 11994; Luria-Bertani broth, 24 h, 37°C
Protocol: as §2

calf thymus DNA (ctDNA) = experiment: Competitive EthBr-DNA fluorescence binding experiment; details: Fluorescent titration, pH 7.4
Protocol: The competitive DNA-silver(I) complex binding experiments were carried out in the buffer (pH 7.4) by maintaining [DNA]/[EthBr] = 5, while increasing the concentration of the complexes 1–3. Each sample solution was scanned in the wavelength range 525–800 nm with an excitation wavelength of 520 nm. The Stern-Volmer constants (Ksv), which represent a measure of the binding propensity of the complexes to DNA, were calculated using the following equation [29]:(2) F0/F=1+Kqτ0complex=1+Ksvcomplex, where F0 and F are the fluorescence intensities in the absence and presence of the complexes, respectively. Kq stands for bimolecular quenching constant and τ0 (10^−8 s) is the lifetime of the fluorophore in the absence of the quencher. The binding constants (KA) and apparent binding sites (n) can be calculated by using the following equation [28]:(3) logF0−F/F=log KA+n logcomplex, where KA stands for the binding constant of the silver(I) complex with ctDNA and n stands for the apparent number of binding sites.

[10] = tested on: Enterococcus faecalis ATCC 29212; experiment: Broth microdilution MIC, E. faecalis; type: cell-based; details: E. faecalis ATCC 29212; Luria-Bertani broth, 24 h, 37°C
Protocol: as §2

C. glabrata ATCC 2001 = experiment: Broth microdilution MIC, C. glabrata; type: cell-based, Candida glabrata; details: C. glabrata ATCC 2001; RPMI 1640 with 2% glucose
Protocol: as §1

[11] = tested on: genomic DNA isolated from C. albicans ATCC 10231; experiment: DNA interaction assay using gel electrophoresis; type: binding, Candida albicans; details: 40, 100 and 400 μM complex, 2 h, 30°C, Tris buffer pH 8.5
Protocol: DNA interaction assay using gel electrophoresis has also been conducted according to the previously published procedure using high molecular weight (HMW) genomic DNA isolated from C. albicans ATCC 10231. Briefly, DNA (50 ng/μL final concentration) was incubated with 40, 100, and 400 μM final concentration of silver(I) complexes 1–3 in Tris buffer, pH 8.5 in 50 μL reaction volume. After 2 h incubation at 30°C, 10 μL aliquots were taken, mixed with loading dye, and loaded on agarose gel. Control contained an appropriate volume of DMSO. DNA samples were run, 500 ng per lane, on 0.8% agarose gel with ethidium bromide (EthBr) against O'GeneRuler™ 1 kb Plus DNA Ladder (Thermo Scientific™) at 60 V for 1 h. Gels were visualized and analyzed using the Gel Doc EZ system (Bio-Rad, Life Sciences, Hercules, USA), equipped with the Image Lab™ Software.

[12] = tested on: Staphylococcus aureus ATCC 43300; experiment: Broth microdilution MIC, S. aureus; type: cell-based; details: S. aureus ATCC 43300; Luria-Bertani broth, 24 h, 37°C
Protocol: as §2

[13] = tested on: C. albicans infected zebrafish; parameters: method as in PMID 30952084; details: at MIC doses; cited from earlier work
C. albicans = tested on: C. albicans; parameters: method as in PMID 30952084; details: at MIC doses; cited from earlier work

T1 sequence (P02769 25-607): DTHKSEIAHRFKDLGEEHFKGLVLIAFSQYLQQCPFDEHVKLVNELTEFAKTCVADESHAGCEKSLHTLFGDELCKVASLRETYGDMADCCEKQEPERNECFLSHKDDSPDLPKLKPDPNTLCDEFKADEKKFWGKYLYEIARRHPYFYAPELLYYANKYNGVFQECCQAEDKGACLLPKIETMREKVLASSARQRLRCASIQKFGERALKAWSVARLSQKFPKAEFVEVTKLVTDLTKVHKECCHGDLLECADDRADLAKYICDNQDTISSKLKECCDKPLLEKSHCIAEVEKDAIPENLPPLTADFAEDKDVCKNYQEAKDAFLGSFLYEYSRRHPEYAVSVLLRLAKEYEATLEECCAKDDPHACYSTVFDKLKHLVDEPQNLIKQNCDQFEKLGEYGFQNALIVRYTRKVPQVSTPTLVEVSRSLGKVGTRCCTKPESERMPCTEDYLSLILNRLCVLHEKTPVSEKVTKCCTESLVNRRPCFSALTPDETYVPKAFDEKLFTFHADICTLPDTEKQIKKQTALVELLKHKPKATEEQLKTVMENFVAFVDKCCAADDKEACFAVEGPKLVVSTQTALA

SMILES	IC50 (cytotoxic effect on MRC-5 cells) [1]	MIC [2] [µg/mL]	Tryptophan fluorescence quenching (emission decrease at 352 nm) [3] [%]	n (number of binding sites per albumin) [3]	MIC [4] [µg/mL]	MIC [5] [µg/mL]	MIC [6]	MIC (C. albicans ATCC 10231) [µg/mL]	effect on C. albicans hyphae formation [7]	MIC [8] [µg/mL]	MIC (C. krusei ATCC 6258) [µg/mL]	MIC [9] [µg/mL]	Hypochromism (calf thymus DNA (ctDNA)) [%]	MIC [10] [µg/mL]	MIC (C. glabrata ATCC 2001) [µg/mL]	interaction with C. albicans genomic DNA (emission of EthBr-DNA system on gel) [11]	MIC [12] [µg/mL]	outcome of infected zebrafish [13]	effect on C. albicans filamentation (C. albicans)	also measured
O=[N+]([O-])[O-].[Ag+].c1cc(CCc2ccncc2)ccn1 [Complex 1, {[Ag(bpa)]NO3}n]	40^b μg/mL	3.1	65.65	1.14	25	50	12.5^a μg/mL	6.25	did not significantly affect the hyphae formation	50	6.25	50	11.3	12.5	6.25	Slightly higher interaction	50	–	–	effect on C. albicans growth under filamentation conditions [7]: reduced the growth
O.O=S(=O)([O-])C(F)(F)F.[Ag+].c1cc(CCc2ccncc2)ccn1.c1cc(CCc2ccncc2)ccn1 [Complex 2, {[Ag(bpa)2]CF3SO3^.H2O}n]	30 µg/mL	2.5	76.10	1.10	12.5	50	12.5 µg/mL	6.25	decreased number and length of hyphae	200	3.1	50	12.0	25	12.5	Slightly higher interaction	200	–	–	–
C(=C\c1ccncc1)/c1ccncc1.O=S(=O)([O-])C(F)(F)F.[Ag+] [Complex 3, {[Ag(bpe)]CF3SO3}n]	40 µg/mL	3.1	81.13	1.30	250	200	12.5 µg/mL	25	did not significantly affect the hyphae formation	25	6.25	25	3.8	25	25	–	100	–	–	K A (calf thymus DNA (ctDNA)): 59.16 M⁻¹
O=C([O-])C(F)(F)F.[Ag+].c1cnc2ccc3ncccc3c2c1 [[Ag(CF3COO)(4,7-phen)]n]	–	–	–	–	–	–	–	–	–	–	–	–	–	–	–	–	–	rescued the infected zebrafish of the lethal infection outcome	totally prevented C. albicans filamentation	–
O=[N+]([O-])[O-].[Ag+].c1cnc2ccc3ncccc3c2c1 [[Ag(NO3)(4,7-phen)]n]	–	–	–	–	–	–	–	–	–	–	–	–	–	–	–	–	–	rescued the infected zebrafish of the lethal infection outcome	totally prevented C. albicans filamentation	–
